Target: rat MCH-1 (Rattus norvegicus, UniProt P97639)
Assay: Radioligand binding assay at cloned rat MCH1 receptor ([3H] Compound A)
Design: host or cells: Peak rapid 293 (Peakr293) cells, transient calcium phosphate transfection, membranes
Conditions: cloned rat MCH1 receptor, membranes from Peakr293 cells, 0.08 nM [3H] Compound A; read-out: Ki (nM) rMCH1

Sequence of rat MCH-1 (P97639 whole entry): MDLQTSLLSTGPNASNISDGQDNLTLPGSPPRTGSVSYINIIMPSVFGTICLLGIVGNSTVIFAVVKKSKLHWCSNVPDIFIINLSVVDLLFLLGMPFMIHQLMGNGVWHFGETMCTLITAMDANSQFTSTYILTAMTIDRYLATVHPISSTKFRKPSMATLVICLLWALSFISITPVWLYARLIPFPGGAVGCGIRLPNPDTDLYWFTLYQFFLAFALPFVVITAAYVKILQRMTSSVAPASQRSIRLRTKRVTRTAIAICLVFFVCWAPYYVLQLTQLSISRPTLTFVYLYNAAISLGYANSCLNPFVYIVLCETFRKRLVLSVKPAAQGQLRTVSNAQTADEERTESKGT

Row | SMILES | Ki
1 | CC(C)C(=O)Nc1cccc(C2CCN(Cc3cccc(Oc4ccc(Cl)c(Cl)c4)c3)CC2)c1 [Example 206] | 17.7 nM
2 | CC(C)C(=O)Nc1cccc(C2CCN(Cc3cccc(Oc4cc(Cl)cc(Cl)c4)c3)CC2)c1 [Example 207, N-(3-{1-[3-(3,5-dichlorophenoxy)benzyl]-4-piperidinyl}phenyl)-2-methylpropanamide] | 137 nM
3 | Cc1ccc(Oc2cccc(CN3CCC(c4cccc(NC(=O)C(C)C)c4)CC3)c2)cc1 [Example 208] | 30.8 nM
4 | CC(C)C(=O)Nc1cccc(C2CCN(Cc3cccc(Oc4cccc(C(F)(F)F)c4)c3)CC2)c1 [Example 209] | 64.8 nM
5 | CC(C)C(=O)Nc1cccc(C2CCN(Cc3cccc(Oc4ccc(Cl)cc4)c3)CC2)c1 [Example 210] | 23.3 nM
6 | CC(C)C(=O)Nc1cccc(C2CCN(Cc3cccc(N(C)C)c3)CC2)c1 [Example 211] | 111 nM
7 | COc1ccc(Oc2cccc(CN3CCC(c4cccc(NC(=O)C(C)C)c4)CC3)c2)cc1 [Example 212] | 43 nM
8 | CC(C)C(=O)Nc1cccc(C2CCN(Cc3cccc(Oc4ccc(C(C)(C)C)cc4)c3)CC2)c1 [Example 213] | 519 nM
9 | CC(C)C(=O)Nc1cccc(C2CCN(Cc3ccc(N4CCCCC4)c([N+](=O)[O-])c3)CC2)c1 [Example 214] | 56.3 nM
10 | Cc1csc2sc(CN3CCC(c4cccc(NC(=O)C(C)C)c4)CC3)c(C)c12 [Example 215, N-(3-{1-[(3,4- DIMETHYLTHIENO[2,3-B]THIEN-2-YL)METHYL]-4-PIPERIDINYL}PHENYL)-2-METHYLPROPANAMIDE] | 283 nM
11 | CC(C)C(=O)Nc1cccc(C2CCN(Cc3c[nH]nc3-c3ccc(C(F)(F)F)cc3)CC2)c1 [Example 216] | 818 nM
12 | CC(C)C(=O)Nc1cccc(C2CCN(Cc3ccc(-n4cncn4)cc3)CC2)c1 [Example 217] | 300 nM
13 | Cc1c(CN2CCC(c3cccc(NC(=O)C(C)C)c3)CC2)cnn1-c1ccccc1 [Example 218] | 126 nM
14 | CC(C)C(=O)Nc1cccc(C2CCN(Cc3ccc(N4CCOCC4)c([N+](=O)[O-])c3)CC2)c1 [Example 219] | 68.8 nM
15 | CC(C)C(=O)Nc1cccc(C2CCN(Cc3ccc(-c4ccc(C(F)(F)F)cc4Cl)o3)CC2)c1 [Example 220] | 159 nM
16 | CCOC(=O)c1c(CN2CCC(c3cccc(NC(=O)C(C)C)c3)CC2)c(C)n(-c2ccccc2)c1C [Example 221, ETHYL 4-({4-[3-(ISOBUTYRYLAMINO)PHENYL]-1-PIPERIDINYL}METHYL)-2,5-DIMETHYL-1-PHENYL-1H-PYRROLE-3-CARBOXYLATE] | 546 nM
17 | CCOC(=O)c1cc(-c2ccc(Cl)cc2)oc1CN1CCC(c2cccc(NC(=O)C(C)C)c2)CC1 [Example 222, ETHYL 5-(4-CHLOROPHENYL)-2-({4-[3-(ISOBUTYRYLAMINO)PHENYL]-1-PIPERIDINYL}METHYL)-3-FUROATE] | 152 nM
18 | CC(C)C(=O)Nc1cccc(C2CCN(Cc3ccc4c(c3)OCCO4)CC2)c1 [Example 223] | 318 nM
19 | CC(C)C(=O)Nc1cccc(C2CCN(Cc3ccc(Oc4ccccc4)nc3)CC2)c1 [Example 224] | 48 nM
20 | CC(C)C(=O)Nc1cccc(C2CCN(Cc3ccc(-c4ccccn4)s3)CC2)c1 [Example 225] | 214 nM
21 | CC(C)C(=O)Nc1cccc(C2CCN(Cc3ccc(-c4cc(C(F)(F)F)nn4C)s3)CC2)c1 [Example 226] | 239 nM
22 | CC(C)C(=O)Nc1cccc(C2CCN(Cc3cn(S(=O)(=O)c4ccccc4)c4ccccc34)CC2)c1 [Example 227] | 262 nM
23 | Cc1c(CN2CCC(c3cccc(NC(=O)C(C)C)c3)CC2)c(=O)n(-c2ccccc2)n1C [Example 228] | 841 nM
24 | CC(C)C(=O)Nc1cccc(C2CCN(Cc3ccc(-c4nc(C(C)(C)C)cs4)cc3)CC2)c1 [Example 229] | 885 nM
25 | Cc1nc(-c2ccccc2)ncc1CN1CCC(c2cccc(NC(=O)C(C)C)c2)CC1 [Example 231] | 596 nM
26 | CC(C)C(=O)Nc1cccc(C2CCN(Cc3ccc4nsnc4c3)CC2)c1 [Example 232] | 431 nM
27 | CC(C)C(=O)Nc1cccc(C2CCN(Cc3ccc(-c4ccccc4)s3)CC2)c1 [Example 233] | 125 nM

Row | SMILES | Ki
28 | CC(C)C(=O)Nc1cccc(C2CCN(Cc3ccc4c(c3)OCCCO4)CC2)c1 [Example 234] | 116 nM
29 | CC(C)C(=O)Nc1cccc(C2CCN(Cc3c[nH]nc3-c3cccs3)CC2)c1 [Example 235] | 412 nM
30 | CC(C)C(=O)Nc1cccc(C2CCN(Cc3ccc(-c4cccs4)s3)CC2)c1 [Example 236] | 97.7 nM
31 | CC(C)C(=O)Nc1cccc(C2CCN(Cc3ccc(-c4cc(C(F)(F)F)n(C)n4)s3)CC2)c1 [Example 238] | 65.9 nM
32 | CC(C)C(=O)Nc1cccc(C2CCN(Cc3cc4ccccc4s3)CC2)c1 [Example 253] | 362 nM
33 | CC(C)C(=O)Nc1cccc(C2CCN(Cc3ccc(-c4cccc(OC(F)(F)F)c4)o3)CC2)c1 [Example 254] | 401 nM
34 | CC(C)C(=O)Nc1cccc(C2CCN(Cc3ccc4ccccc4n3)CC2)c1 [Example 255] | 590 nM
35 | CC(C)C(=O)Nc1cccc(C2CCN(Cc3ccc(-n4ccnc4)cc3)CC2)c1 [Example 256] | 321 nM
36 | CC(C)C(=O)Nc1cccc(C2CCN(Cc3ccc4c(c3)Cc3ccccc3-4)CC2)c1 [Example 257] | 37.2 nM
37 | CC(C)C(=O)Nc1cccc(C2CCN(Cc3ccc(Oc4ccccc4)cc3)CC2)c1 [Example 259] | 15.4 nM
38 | CC(C)C(=O)Nc1cccc(C2CCN(Cc3ccc(-c4ccccc4)cc3)CC2)c1 [Example 260] | 77.7 nM
39 | CCCCN(CCCC)c1ccc(CN2CCC(c3cccc(NC(=O)C(C)C)c3)CC2)cc1 [Example 261] | 6.5 nM
40 | Cc1ccc(Sc2ccc(CN3CCC(c4cccc(NC(=O)C(C)C)c4)CC3)cc2[N+](=O)[O-])cc1 [Example 262] | 64.1 nM
41 | CC(C)C(=O)Nc1cccc(C2CCN(Cc3ccc(-c4csnn4)cc3)CC2)c1 [Example 263] | 156 nM
42 | Cc1ccc(C(=O)CCCN2CCC(c3cccc(NC(=O)C(C)C)n3)CC2)cc1C [Example 264] | 54.7 nM
43 | CC(C)C(=O)Nc1cccc(C2CCN(CCCC(c3ccc(F)cc3)c3ccc(F)cc3)CC2)n1 [Example 265] | 13.5 nM
44 | CC(C)C(=O)Nc1cccc(C2CCN(Cc3ccc(Oc4ccc(F)c(F)c4)cc3)CC2)n1 [Example 266] | 6.4 nM
45 | CCn1c2ccccc2c2cc(CN3CCC(c4ccc(C)c(NC(=O)C(C)C)c4)CC3)ccc21 [Example 268] | 20.3 nM
46 | Cc1ccc(C2CCN(Cc3ccc(Oc4ccc(F)c(F)c4)cc3)CC2)cc1NC(=O)C(C)C [Example 269] | 27.4 nM
47 | CCn1c2ccccc2c2cc(CN3CCC(c4cc(NC(=O)C(C)C)ccc4C)CC3)ccc21 [Example 270] | 3.4 nM
48 | Cc1ccc(C2CCN(CCCC(c3ccc(F)cc3)c3ccc(F)cc3)CC2)cc1NC(=O)C(C)C [Example 271] | 40.1 nM
49 | CC(=O)c1cccc(O[C@@H](CCN2CCC(c3ccc(C)c(NC(=O)C(C)C)c3)CC2)c2ccccc2)c1 [Example 273] | 196 nM
50 | CCn1c2ccccc2c2cc(CN3CCC(c4ccccc4NC(=O)C(C)C)CC3)ccc21 [Example 274] | 844 nM
51 | Cc1ccc(NC(=O)C(C)C)cc1C1CCN(CCCC(c2ccc(F)cc2)c2ccc(F)cc2)CC1 [Example 275] | 3.1 nM
52 | CC(C)C(=O)Nc1ccccc1C1CCN(CCCC(c2ccc(F)cc2)c2ccc(F)cc2)CC1 [Example 276] | 734 nM
53 | CC(C)C(=O)Nc1ccc(OC(F)(F)F)cc1C1CCN(CCCC(c2ccc(F)cc2)c2ccc(F)cc2)CC1 [Example 277] | 118 nM

Source: US6727264B1 (Synaptic Pharmaceutical Corporation, priority 2001, dated 2004)
